Test results: patent US20210379056A1, “SUBSTITUTED PYRAZOLE FUSED RING DERIVATIVE, PREPARATION METHOD THEREFOR, AND APPLICATION THEREOF” (Applied Pharmaceutical Science, Inc., priority 2018, published 2021)

Tests used:
TT Cell = assay: Cell inhibitory activity test (CCK8); format: cell-based; settings: Table 3, 72 hours incubation
Description: Cell Inhibitory Activity Test
1. preparing 90 μl of cell suspension in a 96-well plate with 4000 cells/well. Pre-incubating the culture plate in an incubator for 24 hours (37° C., 5% CO2).
2. adding 10 μl of test compounds of different concentrations to each well of cells, and each compound has multiple wells.
3. incubating the culture plate in the incubator for 72 hours.
4. adding 10 μl of CCK8 solution to each well (be careful not to generate bubbles in the well, otherwise they would affect the reading of the OD value).
5. incubating the culture plate in the incubator for 1-2 hours.
6. measuring the absorbance at 450 nm with a microplate reader.
7. according to the compound concentration and absorbance value, GraphpadPrism software was used to calculate the IC50 of each compound.

[1] = tested on: RET wild-type, mutant and/or fusion-type; assay: Overall statement on RET inhibitory activity (summary of Table 3); settings: statement in words summarising Table 3
Description: As shown in the above table, the example compounds of the present disclosure have improved inhibitory activity against RET wild-type, mutant and/or fusion-type.

Ret wt = biological target: T1, Ret wt (Homo sapiens, UniProt P07949); assay: HTRF kinase activity test, RET wild type; format: biochemical; settings: Table 3; read-out: RET Enzyme (wild type) IC50
T1 construct: purchased Invitrogen PV3082
Description: This test combined peptide substrates and a single proprietary monoclonal antibody with HTRF technology, which was a highly sensitive and stable technology for detecting molecular interactions of proteins. The enzyme phosphorylates the substrate, then the Eu-labeled antibody binds to the phosphorylated substrate, and streptavidin-XL665 binds to all substrates. The TR-FRET signal was generated by the HTRF principle. […] Based on this, the inhibitory effect was evaluated.
The other compounds were diluted 3-fold gradiently with DMSO from the 10 mM stock solution to a total of 10 concentrations respectively.
Adding 4 volumes of distilled water to 1 volume of enzyme buffer 5×; 5 mM MgCl2; 1 mM DTT.
b) centrifuging the compound plate for 1 minute at 1000 g.
c) sealing the test board.
f) adding 4 μl of 1× kinase buffer to each well of the test plate, centrifuging the sample plate at 1000 g for 30 seconds, and placing it at room temperature for 10 minutes.
g) preparing a solution of 5× TK-substrate-biotin ([…]) in kinase buffer and 5×ATP (50 μM) in kinase buffer respectively.
h) starting the reaction by adding 2 μl STK-substrate-biotin and 2 μl ATP (prepared in the step g).
i) centrifuging the sample plate for 30 seconds at 1000 g. Sealing the test board and placing it at room temperature for 30 minutes.
) centrifuging at 1000 g for 30 seconds and placing it at room temperature for 1 hour.
The inhibition rate % was calculated as follows:
Inhibition rate %=[1−(fluorescence signal value of test compound−fluorescence signal value of positive control)/(average ratio of negative control−average ratio of positive control)]*100%
Ratio: generated from the measured fluorescence signal value
The average ratio of the positive control is the average ratio of the positive control (200 nM AT13148) in the sample plate;
The average ratio of negative controls is the average ratio of negative controls (0.1% DMSO) in the sample plate.
GraphPad 6.0 was used to fit the logarithm of the % inhibition rate and the compound concentration into a nonlinear regression (dose response−variable slope) to calculate the IC50 value.

T1 sequence (P07949 29-1114): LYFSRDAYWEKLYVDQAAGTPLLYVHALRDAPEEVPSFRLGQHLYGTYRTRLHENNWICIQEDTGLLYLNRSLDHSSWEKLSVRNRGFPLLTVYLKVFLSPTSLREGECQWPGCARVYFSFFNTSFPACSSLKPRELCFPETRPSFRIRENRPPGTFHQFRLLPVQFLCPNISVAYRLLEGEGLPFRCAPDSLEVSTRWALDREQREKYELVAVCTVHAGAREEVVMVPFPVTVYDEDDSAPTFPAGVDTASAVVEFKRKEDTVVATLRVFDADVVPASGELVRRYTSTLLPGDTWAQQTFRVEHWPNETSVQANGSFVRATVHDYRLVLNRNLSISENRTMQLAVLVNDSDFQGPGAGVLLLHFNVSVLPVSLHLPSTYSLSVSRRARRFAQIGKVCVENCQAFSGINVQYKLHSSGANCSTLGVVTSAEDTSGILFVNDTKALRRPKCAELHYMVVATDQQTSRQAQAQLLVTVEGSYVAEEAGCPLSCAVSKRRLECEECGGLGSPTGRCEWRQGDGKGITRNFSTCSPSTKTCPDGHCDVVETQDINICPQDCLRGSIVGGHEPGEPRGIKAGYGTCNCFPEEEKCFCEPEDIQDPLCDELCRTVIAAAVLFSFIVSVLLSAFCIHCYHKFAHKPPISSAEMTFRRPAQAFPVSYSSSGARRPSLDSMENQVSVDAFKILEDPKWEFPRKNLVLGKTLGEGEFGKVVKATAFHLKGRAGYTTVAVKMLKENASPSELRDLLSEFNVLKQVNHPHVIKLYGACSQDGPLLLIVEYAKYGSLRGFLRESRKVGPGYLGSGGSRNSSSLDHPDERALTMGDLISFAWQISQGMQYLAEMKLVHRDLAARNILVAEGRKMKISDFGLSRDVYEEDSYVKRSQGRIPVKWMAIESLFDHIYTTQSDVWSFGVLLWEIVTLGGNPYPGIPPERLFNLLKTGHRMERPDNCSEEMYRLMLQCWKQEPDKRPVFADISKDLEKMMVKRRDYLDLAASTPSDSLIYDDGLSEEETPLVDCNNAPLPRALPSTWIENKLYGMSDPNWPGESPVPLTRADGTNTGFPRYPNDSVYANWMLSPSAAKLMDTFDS

Molecule | IC50 (TT Cell) [nM] | inhibitory activity against RET wild-type, mutant and/or fusion-type [1] | IC50 (Ret wt) [nM] | IC50 (TT Cell; Homo sapiens, TT) [nM]
2-amino-4-(6-(4-((2-fluorobenzyl)piperazine-6-(1-methyl-1H-pyrazol-4-yl)pyrazolo[1,5-a]pyridine-3-carbonitrile [APS015] | 27.7 | excellent activity | 1.7 | –
Cn1cc(-c2cc(-c3ccc(N4CCN(Cc5cncc(F)c5)CC4)nc3)c3c(C#N)c(N)nn3c2)cn1 [APS014] | – | excellent activity | 1 | 44.6
Cn1cc(-c2cc(-c3ccc(N4CCN(Cc5cccc(F)c5)CC4)nc3)c3c(C#N)c(N)nn3c2)cn1 [APS019] | – | excellent activity | < 1 | 7.8
Cn1cc(-c2cc(-c3ccc(N4CCN(Cc5cc(F)ccc5F)CC4)nc3)c3c(C#N)c(N)nn3c2)cn1 [APS020] | – | excellent activity | 1.1 | 14.3
Cc1cccnc1CN1CCN(c2ccc(-c3cc(-c4cnn(C)c4)cn4nc(N)c(C#N)c34)cn2)CC1 [APS022] | – | excellent activity | 2.2 | 45.5
Cn1cc(-c2cc(-c3ccc(N4CCN(Cc5c(F)cccc5F)CC4)nc3)c3c(C#N)c(N)nn3c2)cn1 [APS024, 2-amino-4-(6-(4-(2,6-difluorobenzyl)piperazin-1-yl)pyridin-3-yl)-6-(1-methyl-1H-pyrazole-4-yl)pyrazolo[1,5-a]pyridine-3-carbonitrile] | – | excellent activity | 1 | 7.1
Cc1ccnc(CN2CCN(c3ccc(-c4cc(-c5cnn(C)c5)cn5nc(N)c(C#N)c45)cn3)CC2)c1 [APS025] | – | excellent activity | 1.4 | 38.2
COc1cccc(CN2CCN(c3ccc(-c4cc(-c5cnn(C)c5)cn5nc(N)c(C#N)c45)cn3)CC2)c1 [APS026, 2-amino-4-(6-(4-(3-methoxybenzyl)piperazin-1-yl)pyridin-3-yl)-6-(1-methyl-1H-pyrazole-4-yl)pyrazolo[1,5-a]pyridine-3-carbonitrile] | – | excellent activity | 1.4 | 18.1
Cn1cc(-c2cc(-c3ccc(N4CCN(Cc5ccccc5Cl)CC4)nc3)c3c(C#N)c(N)nn3c2)cn1 [APS027, 2-amino-4-(6-(4-(2-chlorobenzyl)piperazin-1-yl)pyridin-3-yl)-6-(1-methyl-1H-pyrazol-4-yl) pyrazolo[1,5-a]pyridine-3-carbonitrile] | – | excellent activity | 2.4 | 85.7
Cn1cc(-c2cc(-c3ccc(N4CCN(Cc5ccccn5)CC4)nc3)c3c(C#N)c(N)nn3c2)cn1 [APS035, 2-amino-6-(1-methyl-1H-pyrazol-4-yl)-4-(6-(4-(4-(pyridin-2-yl)methyl)piperazin-1-yl)pyridin-3-yl)pyrazolo[1,5-a]pyridine-3-carbonitrile] | – | excellent activity | 1.7 | 65.4
Cn1cc(-c2cc(-c3ccc(N4CC5CC(C4)N5Cc4ccccn4)nc3)c3c(C#N)c(N)nn3c2)cn1 [APS038, 2-amino-6-(1-methyl-1H-pyrazol-4-yl)-4-(6-(6-(pyridin-2-yl-methyl)-3,6-diazabicyclo[3.1.1]heptan-3-yl)pyridin-3-yl)pyrazolo[1,5-a]pyridine-3-carbonitrile] | – | excellent activity | 1 | 37.7
COc1ccc(CN2CCN(c3ccc(-c4cc(-c5cnn(C)c5)cn5nc(N)c(C#N)c45)cn3)CC2)cn1 [APS068, 2-amino-4-(6-(4-((6-methoxypyridin-3-yl)methyl)piperazin-1-yl)pyridin-3-yl)-6-(1-methyl-1H-pyrazol-4-yl)pyrazolo[1,5-a]pyridine-3-carbonitrile] | – | excellent activity | – | 11.3
Cc1nn2cc(-c3cnn(C)c3)cc(-c3ccc(N4CCN(C(=O)Cc5ccc(F)cn5)CC4)nc3)c2c1C#N [APS071, 2-methyl-4-(6-(4-(2-(5-fluoropyridin-2-yl)acetyl)piperazin-1-yl)pyridin-3-yl)-6-(1-methyl-1H-pyrazol-4-yl)pyrazolo[1,5-a]pyridine-3-carbonitrile] | – | – | 64.6 | –
Cc1nn2cc(-c3cnn(C)c3)cc(-c3ccc(N4CCC(Cc5ccccn5)CC4)nc3)c2c1C#N [APS072, 2-methyl-6-(1-methyl-1H-pyrazol-4-yl)-4-(6-(4-(pyridin-2-yl-methyl)piperidin-1-yl)pyridine-3-yl)pyrazolo[1,5-a]pyridine-3-carbonitrile] | – | – | 78.3 | –
COc1ccc(CN2CCN(c3ccc(-c4cc(-c5cnn(C)c5)cn5nc(O)c(C#N)c45)cn3)CC2)cn1 [APS083, 2-hydroxy-4-(6-(4-((6-methoxypyridin-3-yl)methyl)piperazin-1-yl)pyridin-3-yl)-6-(1-methyl-1H-pyrazol-4-yl)pyrazolo[1,5-a]pyridine-3-carbonitrile] | – | – | 212 | –
COc1ccc(CN2CCN(c3ccc(-c4cc(-c5cnn(C)c5)cn5nc(NC(C)=O)c(C#N)c45)cn3)CC2)cn1 [APS085, N-(3-cyano-4-(6-(4-((6-methoxypyridin-3-yl)methyl)piperazin-1-yl)pyridin-3-yl)-6-(1-methyl-1H-pyrazol-4-yl)pyrazolo[1,5-a]pyridin-2-yl)acetamide] | – | – | 865 | –
CNc1nn2cc(-c3cnn(C)c3)cc(-c3ccc(N4CCN(Cc5ccc(OC)nc5)CC4)nc3)c2c1C#N [APS086, 2-methylamino-4-(6-(4-((6-methoxypyridin-3-yl)methyl)piperazin-1-yl)pyridin-3-yl)-6-(1-methyl-1H-pyrazol-4-yl)pyrazolo[1,5-a]pyridine-3-carbonitrile] | – | – | 234 | –
CCOc1cc(-c2ccc(N3CCN(Cc4ccc(OC)nc4)CC3)nc2)c2c(C#N)c(N)nn2c1 [APS099] | – | excellent activity | – | 16.2
COCCOc1cc(-c2ccc(N3CCN(Cc4ccc(OC)nc4)CC3)nc2)c2c(C#N)c(N)nn2c1 [APS100, 2-amino-6-(2-methoxyethoxy)-4-(6-(4-((6-methoxypyridin-3-yl)methyl)piperazin-1-yl)pyridine-3-yl)pyrazolo[1,5-a]pyridine-3-carbonitrile] | – | excellent activity | – | 22.4
CCOc1cc(-c2ccc(N3CC4CC(C3)N4Cc3cncc(F)c3)nc2)c2c(C#N)c(N)nn2c1 [APS111, 2-amino-6-ethoxy-4-(6-(6-((5-fluoropyridin-3-yl)methyl)-3,6-diazabicyclo[3.1.1]heptane-3-yl)pyridin-3-yl)pyrazolo[1,5-a]pyridine-3-carbonitrile] | – | excellent activity | – | 6.4
CCOc1cc(-c2ccc(N3CC4CC(C3)N4Cc3cncc(Cl)c3)nc2)c2c(C#N)c(N)nn2c1 [APS112, 2-amino-4-(6-(6-((5-chloropyridin-3-yl)methyl)-3,6-diazabicyclo[3.1.1]heptan-3-yl)pyridine-3-yl)-6-ethoxypyrazolo[1,5-a]pyridine-3-carbonitrile] | – | – | 18.9 | –
COc1ccc(CN2C3CC2CN(c2ccc(-c4cc(OCCOC(C)C)cn5nc(N)c(C#N)c45)cn2)C3)cn1 [APS120, 2-amino-6-(2-isopropoxyethoxy)-4-(6-(6-((6-methoxypyridin-3-yl)methyl)-3,6-diazabicyclo [3.1.1]heptan-3-yl)pyridin-3-yl)pyrazolo[1,5-a]pyridine-3-carbonitrile] | – | excellent activity | – | 16.9
